One test concerns the target T1, wildtype Kras / hSOS1 (Homo sapiens, UniProt P01116).
T1 construct: made in house; host or cells: E. coli BL21 (DE3)
The test is described as follows: HTRF assay, wildtype Kras / SOS1 interaction. The test is classed as binding. The following applies: read-out: IC50 against wildtype Kras. The gist of the method:
(§1)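 Inhibition of wildtype or mutant K-Ras binding to hSOS1 is measured by FRET between antibody-bound Eu donor and XL665 acceptor. Protein levels are matched to the IC50 range under study. The 665/620 nm signal after ≥10 min yields IC50.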
For orientation: TR-FRET usually uses a lanthanide donor and a delayed reading to cut background.

Test [1] concerns the target GST-tagged K-Ras mutant / His-tagged hSOS1 (Homo sapiens, UniProt P01116). The test is described as follows: HTRF assay, K-Ras mutant / SOS1 interaction. The test is classed as binding. The following applies: read-out: IC50 against mutant Kras. The gist of the method:
as §1

The mark [2] stands for this setting: compound nos. 102-196, general methodology of example 5.
The mark [3] stands for this setting: compound nos. 201-213, general methodology of example 5.

For orientation: IC50 means the concentration that gives 50% inhibition.

Read-outs that look alike come from different tables or passages of the source. Some results are limits rather than exact numbers.

Chain of GST-tagged K-Ras mutant / His-tagged hSOS1 (P01116 whole entry G12D, form open): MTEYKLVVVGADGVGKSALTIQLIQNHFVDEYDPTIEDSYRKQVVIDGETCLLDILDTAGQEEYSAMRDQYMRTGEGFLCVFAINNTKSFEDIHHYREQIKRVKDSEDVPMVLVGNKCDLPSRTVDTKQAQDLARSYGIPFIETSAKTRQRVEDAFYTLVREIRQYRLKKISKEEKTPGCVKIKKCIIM
T1 sequence (P01116 1-188 isoform P01116-2): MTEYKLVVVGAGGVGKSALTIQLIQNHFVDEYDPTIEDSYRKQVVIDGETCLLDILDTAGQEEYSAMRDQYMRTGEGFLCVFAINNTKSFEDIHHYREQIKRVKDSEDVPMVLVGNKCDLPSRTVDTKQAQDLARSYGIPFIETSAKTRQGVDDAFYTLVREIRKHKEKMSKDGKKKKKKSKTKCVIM

As for `Fc1c(-c2cccc3ncccc23)c(Cl)cc2c(N3CCCCCC3)nc(OCC34CCCN3CCC4)nc12` [Compound 540, 4-(azepan-1-yl)-6-chloro-8-fluoro-7-(quinolin-5-yl)-2-((tetrahydro-1H-pyrrolizin-7a(5H)-yl)methoxy)quin-azoline], the IC50 (at wildtype Kras / hSOS1 (compound nos. 401-703); in test [1] (compound nos. 401-703)) was > 500 nM each time.
Consider `N#CC1C2CCC1CN(c1nc(OC[C@@]34CCCN3C[C@H](F)C4)nc3c(F)c(-c4ccc(F)c5sc(N)nc45)c(Cl)cc13)C2` (stereo partly drawn) [Compound 403, (1R,5S,8S)-3-(7-(2-amino-7-fluorobenzo[d]thiazol-4-yl)-6-chloro-8-fluoro-2-(((2R,7aS)-2-fluorotetra-hydro-1H-pyrrolizin-7a(5H)-yl)methoxy)quinazolin-4-yl)-3-azabicyclo[3.2.1]-octane-8-carbonitrile], for which the IC50 (on wildtype Kras / hSOS1 (compound nos. 401-703); in test [1] (compound nos. 401-703)) was < 500 nM each time.
In the case of `Nc1nc2c(-c3c(Cl)cc4c(N5[C@@H]6CC[C@H]5CC(F)(F)C6)nc(OC[C@@]56CCCN5C[C@H](F)C6)nc4c3F)ccc(F)c2s1` [Compound 303, 4-(6-chloro-4-((1R,5S)-3,3-difluoro-8-azabicyclo[3.2.1]-octan-8-yl)-8-fluoro-2-(((2R,7aS)-2-fluorotetra-hydro-1H-pyrrolizin-7a(5H)-yl)methoxy)quinazolin-7-yl)-7-fluorobenzo[d]thiazol-2-amine], the IC50 at wildtype Kras / hSOS1 (compound nos. 301-306) was < 1500 nM; in test [1] (compound nos. 301-306), > 1500 nM.
Regarding `Nc1nc2c(-c3c(Cl)cc4c(N5CCOCC(O)C5)nc(OCC56CCCN5CCC6)nc4c3F)cccc2s1` (stereo not shown) [Compound 156, 4-(7-(2-aminobenzo[d]-thiazol-4-yl)-6-chloro-8-fluoro-2-((tetrahydro-1H-pyrrolizin-7a(5H)-yl)-methoxy)quinazolin-4-yl)-1,4-oxazepan-6-ol], the IC50 (on wildtype Kras / hSOS1 (setting [2]); in test [1] (setting [2])) was < 500 nM each time.
For the compound `Nc1nc2c(-c3c(Cl)cc4c(N5CCCOCC5)nc(OC[C@@]56CCCN5C[C@H](F)C6)nc4c3F)ccc(F)c2s1` [Compound 154, 4-(6-chloro-8-fluoro-2-(((2R,7aS)-2-fluorotetra-hydro-1H-pyrrolizin-7a(5H)-yl)methoxy)-4-(1,4-oxazepan-4-yl)quin-azolin-7-yl)-7-fluoro-benzo[d]-thiazol-2-amine], the IC50 (at wildtype Kras / hSOS1 (setting [2]); in test [1] (setting [2])) was < 500 nM each time.
For the compound `Nc1nc2c(-c3c(Cl)cc4c(N5CCNCC(F)(F)C5)nc(OCC56CCCN5CCC6)nc4c3F)ccc(F)c2s1` [Compound 109, 4-(6-chloro-4-(6,6-difluoro-1,4-diazepan-1-yl)-8-fluoro-2-((tetrahydro-1H-pyrrol-izin-7a(5H)-yl)methoxy)-quinazolin-7-yl)-7-fluoro-benzo[d]thiazol-2-amine], the IC50 (at wildtype Kras / hSOS1 (setting [2]); in test [1] (setting [2])) was < 500 nM throughout.
Turning to `Nc1nc2c(-c3c(Cl)cc4c(N5CC6CCC(C5)NC6)nc(OC[C@@]56CCCN5C[C@H](F)C6)nc4c3F)ccc(F)c2s1` (stereo partly drawn) [Compound 511, 4-(4-(3,6-diazabicyclo-[3.2.2]nonan-3-yl)-6-chloro-8-fluoro-2-(((2R,7aS)-2-fluorotetrahydro-1H-pyrrol-izin-7a(5H)-yl)methoxy)-quinazolin-7-yl)-7-fluoro-benzo[d]thiazol-2-amine], the IC50 on wildtype Kras / hSOS1 (compound nos. 401-703) is > 500 nM; in test [1] (compound nos. 401-703) it was < 500 nM.
On the same counts, the results for `N#Cc1c(N)sc2c(F)ccc(-c3c(Cl)cc4c(N5CC6CCC(C5)N6)nc(OC[C@@]56CCCN5C[C@H](F)C6)nc4c3F)c12` [Compound 673, 4-(4-(3,8-diazabicyclo-[3.2.1]octan-3-yl)-6-chloro-8-fluoro-2-(((2R,7aS)-2-fluorotetrahydro-1H-pyrrol-izin-7a(5H)-yl)methoxy)-quinazolin-7-yl)-2-amino-7-fluorobenzo[b]thiophene-3-carbonitrile] are > 500 nM and < 500 nM.
For `Nc1nc2c(-c3c(Cl)cc4c(N5CCNCC(F)(F)C5)nc(OCC56CCCN5C(=O)CC6)nc4c3F)cccc2s1` (stereo not shown) [Compound 151, 7a-(((7-(2-aminobenzo[d]-thiazol-4-yl)-6-chloro-4-(6,6-difluoro-1,4-diazepan-1-yl)-8-fluoroquinazolin-2-yl)oxy)methyl)hexahydro-3H-pyrrolizin-3-one], the 50% inhibitory concentration (IC50) (at wildtype Kras / hSOS1 (setting [2]); in test [1] (setting [2])) was > 500 nM each time.
In the case of `CNCCCN1[C@@H]2CC[C@H]1CN(c1nc(OCC34CCCN3CCC4)nc3c(F)c(-c4ccc(F)c5sc(N)nc45)c(Cl)cc13)C2` [Compound 594, 4-(6-chloro-8-fluoro-4-((1R,5S)-8-(3-(methyl-amino)propyl)-3,8-diaza-bicyclo[3.2.1]octan-3-yl)-2-((tetrahydro-1H-pyrrol-izin-7a(5H)-yl)methoxy)-quinazolin-7-yl)-7-fluoro-benzo[d]thiazol-2-amine], the IC50 at wildtype Kras / hSOS1 (compound nos. 401-703) is > 500 nM; in test [1] (compound nos. 401-703) it was < 500 nM.
On the same counts, the results for `Fc1c(-c2ccc(F)c3[nH]nc(I)c23)c(Cl)cc2c(N3CC4CCC(C3)N4)nc(OC[C@@]34CCCN3C[C@H](F)C4)nc12` [Compound 671, 4-(3,8-diazabicyclo[3.2.1]-octan-3-yl)-6-chloro-8-fluoro-7-(7-fluoro-3-iodo-1H-indazol-4-yl)-2-(((2R,7aS)-2-fluorotetra-hydro-1H-pyrrolizin-7a(5H)-yl)methoxy)quinazoline] are > 500 nM and > 500 nM.
As to `Nc1nc2c(C3CCc4c(nc(OC[C@@]56CCCN5C[C@H](F)C6)nc4N4CCNCC(F)(F)C4)C3)cccc2s1` (stereo partly drawn) [Compound 509, 4-(4-(6,6-difluoro-1,4-diazepan-1-yl)-2-(((2R,7aS)-2-fluorotetrahydro-1H-pyrrolizin-7a(5H)-yl)meth-oxy)-5,6,7,8-tetrahydro-quinazolin-7-yl)benzo[d]-thiazol-2-amine], the concentration for half-maximal inhibition (IC50) (at wildtype Kras / hSOS1 (compound nos. 401-703); in test [1] (compound nos. 401-703)) was > 500 nM in each case.
Turning to `Cc1ccc2oc(N)nc2c1-c1c(Cl)cc2c(N3CCNCC(F)(F)C3)nc(OC[C@@]34CCCN3C[C@H](F)C4)nc2c1F` [Compound 463, 4-(6-chloro-4-(6,6-difluoro-1,4-diazepan-1-yl)-8-fluoro-2-(((2R,7aS)-2-fluorotetra-hydro-1H-pyrrolizin-7a(5H)-yl)methoxy)quinazolin-7-yl)-5-methylbenzo[d]oxazol-2-amine], the IC50 (at wildtype Kras / hSOS1 (compound nos. 401-703); in test [1] (compound nos. 401-703)) was < 500 nM in each case.
As to `Cc1ccc2cnn(C)c2c1-c1c(Cl)cc2c(N3CC4CCC(C3)N4)nc(OCC3(CN4CCCC4)CC3)nc2c1F` [Compound 438, 4-(3,8-diazabicyclo[3.2.1]-octan-3-yl)-6-chloro-7-(1,6-dimethyl-1H-indazol-7-yl)-8-fluoro-2-((1-(pyrrolidin-1-ylmethyl)cyclopropyl)meth-oxy)quinazoline], the results for the IC50 (on wildtype Kras / hSOS1 (compound nos. 401-703); in test [1] (compound nos. 401-703)) were < 500 nM and > 500 nM, respectively.
For `CN1CCC[C@H]1COc1nc(N2CCNCC(F)(F)C2)c2cc(Cl)c(-c3cccc4scnc34)c(F)c2n1` [Compound 122, 4-(6-chloro-4-(6,6-difluoro-1,4-diazepan-1-yl)-8-fluoro-2-(((S)-1-methylpyrrolidin-2-yl)methoxy)quinazolin-7-yl)benzo[d]thiazole], the IC50 (at wildtype Kras / hSOS1 (setting [2]); in test [1] (setting [2])) was > 500 nM throughout.
In the case of `CN1CCC[C@H]1COc1nc(N2CCNCC(O)C2)c2cc(Cl)c(-c3cccc4sc(N)nc34)c(F)c2n1` (stereo partly drawn) [Compound 103, 1-(7-(2-aminobenzo[d]-thiazol-4-yl)-6-chloro-8-fluoro-2-(((S)-1-methyl-pyrrolidin-2-yl)methoxy)-quinazolin-4-yl)-1,4-diazepan-6-ol], the IC50 (on wildtype Kras / hSOS1 (setting [2]); in test [1] (setting [2])) was < 500 nM throughout.
With `CN1[C@@H]2CC[C@H]1CN(c1nc(OC[C@@]34CCCN3C[C@H](F)C4)nc3c(F)c(-c4ccc(F)c5sc(N)nc45)c(Cl)cc13)C2` [Compound 470, 4-(6-chloro-8-fluoro-2-(((2R,7aS)-2-fluorotetrahydro-1H-pyrrolizin-7a(5H)-yl)methoxy)-4-((1R,5S)-8-methyl-3,8-diazabicyclo[3.2.1]octan-3-yl)quinazolin-7-yl)-7-fluorobenzo[d]thiazol-2-amine], the half-maximal inhibitory concentration (IC50) (on wildtype Kras / hSOS1 (compound nos. 401-703); in test [1] (compound nos. 401-703)) was < 500 nM in each case.
In the case of `CN1CCC[C@H]1COc1nc(N2CCCC(NC3CC3)CC2)c2cc(Cl)c(-c3cccc4sc(N)nc34)c(F)c2n1` (stereo partly drawn) [Compound 559, 4-(6-chloro-4-(4-(cyclo-propylamino)azepan-1-yl)-8-fluoro-2-(((S)-1-methyl-pyrrolidin-2-yl)methoxy)-quinazolin-7-yl)benzo[d]-thiazol-2-amine], the IC50 (at wildtype Kras / hSOS1 (compound nos. 401-703); in test [1] (compound nos. 401-703)) was > 500 nM throughout.
Consider `Nc1cccc(-c2ccc(O)cc2-c2c(Cl)cc3c(N4CC5CCC(C4)N5)nc(OCC45CCCN4CCC5)nc3c2F)c1` [Compound 652, 2-(4-(3,8-diazabicyclo-[3.2.1]octan-3-yl)-6-chloro-8-fluoro-2-((tetrahydro-1H-pyrrolizin-7a(5H)-yl)meth-oxy)quinazolin-7-yl)-3′-amino-[1,1′-biphenyl]-4-ol], for which the IC50 (on wildtype Kras / hSOS1 (compound nos. 401-703); in test [1] (compound nos. 401-703)) was > 500 nM each time.
In the case of `Nc1nc2c(-c3c(Cl)cc4c(N5C[C@H]6CC[C@@H](C5)N6)nc(OCCCN5CCCC5)nc4c3F)ccc(F)c2s1` [Compound 208, 4-(4-((1R,5S)-3,8-diaza-bicyclo[3.2.1]octan-3-yl)-6-chloro-8-fluoro-2-(3-(pyrrolidin-1-yl)propoxy)-quinazolin-7-yl)-7-fluoro-benzo[d]thiazol-2-amine], the IC50 (on wildtype Kras / hSOS1 (setting [3]); in test [1] (setting [3])) was < 1500 nM each time.

These data come from US20240254129A1, “HETEROCYCLIC COMPOUNDS AND USES THEREOF” (Kumquat Biosciences Inc., priority 2021, published 2024).
